Laboratory results taken from US4400510A, “A-32256 Phenazine antibiotic” (Eli Lilly and Company, priority 1981, dated 1983).
Converted amounts (≈) assume the structure as drawn. “Also recorded” adds a separate entry of the source. Like-named read-outs stand apart in the source and are kept apart here.

How the values were obtained:
[1] = system: Erwinia amylovora; assay: agar-dilution screening procedure, MIC; assay type: cell-based
Procedure: (§1) The agar-dilution procedure described by the International Collaborative Study (ICS) group was used to determine MIC values.
(§2) The results obtained from tests of antibiotic A-32256 in the agar-dilution screening procedure are recorded in Table 5, which follows.

[2] = system: Staphylococcus aureus; assay: agar-dilution screening procedure, MIC; assay type: cell-based
Procedure: as §1, §2

[3] = system: Streptococcus faecalis; assay: agar-dilution screening procedure, MIC; assay type: cell-based; details: Enterococcus faecalis, S. faecalis X66
Procedure: as §1, §2

[4] = system: Clostridium perfringens; assay: microbe, parasite or virus in culture; assay type: cell-based; details: Clostridium perfringens, strain 81; Table 6
[5] = system: Peptococcus asaccharolyticus; assay: agar-dilution MIC vs. anaerobic bacteria; assay type: cell-based; details: strain 1302; Table 6
[6] = system: Peptostreptococcus anaerobius; assay: agar-dilution MIC vs. anaerobic bacteria; assay type: cell-based; details: strain 1428, Table 6
[7] = system: Propionibacterium acnes; assay: agar-dilution MIC vs. anaerobic bacteria; assay type: cell-based; details: strain 79; Table 6
[8] = system: Bacteroides fragilis; assay: agar-dilution MIC vs. anaerobic bacteria; assay type: cell-based; details: Table 6
[9] = system: Bacteroides melanogenicus; assay: agar-dilution MIC vs. anaerobic bacteria; assay type: cell-based; details: Table 6
[10] = system: Bacteroides vulgatis; assay: agar-dilution MIC vs. anaerobic bacteria; assay type: cell-based; details: strain 1211; Table 6
[11] = system: Fusobacterium symbiosum; assay: agar-dilution MIC vs. anaerobic bacteria; assay type: cell-based; details: strain 1470; Table 6
[12] = system: Fusobacterium necrophorum; assay: agar-dilution MIC vs. anaerobic bacteria; assay type: cell-based; details: Fusobacterium necrophorum; strain 6054A; Table 6; read-out: MIC
[13] = system: B. corrodens; assay: agar-dilution MIC vs. Bacteroides species; assay type: cell-based; details: B. corrodens 1874; 24 hours; Table 8
Procedure: as §1
(§3) The MIC values were determined by the agar-dilution method, the endpoints being read 24 hours after incubation, and are recorded in Table 8, which follows.

[14] = system: B. thetaiotaomicron; assay: agar-dilution MIC vs. Bacteroides species; assay type: cell-based; details: 24 hours, Table 8
Procedure: as §1, §3

[15] = system: B. vulgatis; assay: agar-dilution MIC vs. Bacteroides species; assay type: cell-based; details: B. vulgatis 1563; 24 hours; Table 8
Procedure: as §1, §3

[16] = system: Bacteroides fragilis; assay: agar-dilution MIC vs. Bacteroides species; assay type: cell-based; details: 24 hours, Table 8
Procedure: as §1, §3

[17] = system: Peptococcus asaccharolyticus; assay: agar-dilution MIC vs. Peptococcus and Peptostreptococcus species; assay type: cell-based; details: Table 9
Procedure: as §1
(§4) The MIC values were determined by the agar-dilution method, and are recorded in Table 9, which follows.

[18] = system: Peptococcus constellatus; assay: as above; assay type: cell-based; details: Pc. constellatus 1468; Table 9
Procedure: as §1, §4

[19] = system: Peptococcus magnus; assay: as above; assay type: cell-based; details: Table 9
Procedure: as §1, §4

[20] = system: Peptococcus prevoti; assay: as above; assay type: cell-based; details: Table 9
Procedure: as §1, §4

[21] = system: Peptostreptococcus anaerobius; assay: as above; assay type: cell-based; details: Table 9
Procedure: as §1, §4

[22] = system: Peptostreptococcus intermedius; assay: as above; assay type: cell-based; details: Table 9
Procedure: as §1, §4

[23] = system: Trichomonas vaginalis; assay: broth dilution assay, antitrichomonal activity; assay type: cell-based; details: in vitro
[24] = system: mosquito; assay: mosquito larvacide activity; assay type: in vivo; details: application rate of about 20 ppm
From the text: Antibiotic A-32256 is also active as a mosquito larvacide at an application rate of about 20 ppm.

[25] = solubility; assay type: physicochemical
[26] = system: Staphylococcus aureus; assay: disc-plate screening procedure, zone of inhibition
[27] = system: Streptococcus pyogenes; assay: disc-plate screening procedure, zone of inhibition; details: read-out: Zone Diameter
[28] = system: Streptococcus pneumoniae; assay: disc-plate screening procedure, zone of inhibition; details: read-out: Zone Diameter

`Cc1cccc(O)c1C(=O)OC(C)c1cccc2nc3c(C(=O)O)cccc3nc12` (stereo not shown) [Antibiotic A-32256, 6-[1-[(2-hydroxy-6-methylbenzoyl)oxy]-ethyl]-1-phenazinecarboxylic acid] gave an MIC [1] of 4 µg/mL (≈ 9.94 µM), an MIC ([2]; S. aureus 3055, benzylpenicillin-susceptible) of 1 µg/mL (≈ 2.49 µM) and an MIC ([2]; S. aureus 3074, benzylpenicillin-resistant) of less than 0.5 µg/mL. The MIC [3] was 4 µg/mL (≈ 9.94 µM), the MIC [4] was 2 µg/mL (≈ 4.97 µM) and the MIC [5] was 16 µg/mL (≈ 39.8 µM). It also gave an MIC [6] of no more than 0.5 µg/mL, an MIC [7] of 2 µg/mL (≈ 4.97 µM) and an MIC ([8]; Bacteroides fragilis, strain 111, read-out: MIC) of 1 µg/mL (≈ 2.49 µM). For the same compound, the MIC ([8]; Bacteroides fragilis, strain 1936B, read-out: MIC) was 1 µg/mL (≈ 2.49 µM), the MIC ([8]; strain 1877) was 8 µg/mL (≈ 19.9 µM) and the MIC ([9]; Bacteroides, strain 1856/28, read-out: MIC) was 16 µg/mL (≈ 39.8 µM). The MIC ([9]; strain 2736) was 16 µg/mL (≈ 39.8 µM), the MIC [10] was 8 µg/mL (≈ 19.9 µM) and the MIC [11] was 2 µg/mL (≈ 4.97 µM). For the same compound, the MIC [12] was 1 µg/mL (≈ 2.49 µM), the MIC [13] was 0.25 µg/mL (≈ 0.621 µM) and the MIC ([14]; B. thetaiotaomicron 1438) was 1.0 µg/mL (≈ 2.49 µM). For the same compound, the MIC ([14]; B. thetaiotaomicron 1900A) was 1.0 µg/mL (≈ 2.49 µM), the MIC [15] was 1.0 µg/mL (≈ 2.49 µM) and the MIC ([16]; B. fragilis 2) was 1.0 µg/mL (≈ 2.49 µM). It also gave an MIC ([16]; B. fragilis 9) of 1.0 µg/mL (≈ 2.49 µM), an MIC ([16]; B. fragilis 62) of 1.0 µg/mL (≈ 2.49 µM) and an MIC ([16]; B. fragilis 103) of 0.5 µg/mL (≈ 1.24 µM). It also gave an MIC ([16]; B. fragilis 104) of 1.0 µg/mL (≈ 2.49 µM), an MIC ([16]; B. fragilis 106) of 0.5 µg/mL (≈ 1.24 µM) and an MIC ([16]; B. fragilis 107) of 2 µg/mL (≈ 4.97 µM). It also gave an MIC ([16]; B. fragilis 108) of 1.0 µg/mL (≈ 2.49 µM), an MIC ([16]; B. fragilis 110) of 0.5 µg/mL (≈ 1.24 µM) and an MIC ([16]; B. fragilis 111) of 1.0 µg/mL (≈ 2.49 µM). For the same compound, the MIC ([16]; B. fragilis 112) was 0.5 µg/mL (≈ 1.24 µM), the MIC ([16]; B. fragilis 113) was 1.0 µg/mL (≈ 2.49 µM) and the MIC ([16]; B. fragilis 1470) was 0.5 µg/mL (≈ 1.24 µM). The MIC ([16]; B. fragilis 1877) was 1.0 µg/mL (≈ 2.49 µM), the MIC ([16]; V. fragilis 1451 (so in the source)) was 2 µg/mL (≈ 4.97 µM) and the MIC ([17]; Pc. asaccharolyticus 1302) was 2 µg/mL (≈ 4.97 µM). It also gave an MIC ([17]; Pc. asaccharolyticus 1344) of 2 µg/mL (≈ 4.97 µM), an MIC [18] of 8 µg/mL (≈ 19.9 µM) and an MIC ([19]; Pc. magnus 1401) of 2 µg/mL (≈ 4.97 µM). For the same compound, the MIC ([19]; Pc. magnus 1421) was 0.5 µg/mL (≈ 1.24 µM), the MIC ([19]; Pc. magnus 1477) was 0.5 µg/mL (≈ 1.24 µM) and the MIC ([20]; Pc. prevoti 1281) was 2 µg/mL (≈ 4.97 µM). The MIC ([20]; Pc. prevoti 1293) was 16 µg/mL (≈ 39.8 µM), the MIC ([20]; Pc. prevoti 1407) was 2 µg/mL (≈ 4.97 µM) and the MIC ([21]; Peptostreptococcus anaerobius, Ps. anaerobius 1428, read-out: MIC) was no more than 0.125 µg/mL. The MIC ([21]; Ps. anaerobius 8) was 2 µg/mL (≈ 4.97 µM), the MIC ([21]; Ps. anaerobius 52) was 8 µg/mL (≈ 19.9 µM) and the MIC ([21]; Ps. anaerobius 59) was 0.5 µg/mL (≈ 1.24 µM). For the same compound, the MIC ([21]; Ps. anaerobius 1418) was 0.25 µg/mL (≈ 0.621 µM), the MIC ([21]; Ps. anaerobius 1451) was 0.5 µg/mL (≈ 1.24 µM) and the MIC ([21]; Ps. anaerobius 1477) was 8 µg/mL (≈ 19.9 µM). For the same compound, the MIC ([22]; Ps. intermedius 1264) was 2 µg/mL (≈ 4.97 µM), the MIC ([22]; Ps. intermedius 1524, read-out: MIC) was no more than 0.125 µg/mL and the MIC ([22]; Ps. intermedius 1624) was 8 µg/mL (≈ 19.9 µM). For the same compound, the antitrichomonal activity [23] was “has shown antitrichomonal activity in vitro”, the mosquito larvacide activity [24] was “active” and the solubility ([25]; acetone) was “moderately soluble”. For the same compound, the solubility ([25]; alkaline aqueous solutions) was “soluble”, the solubility ([25]; chloroform) was “easily soluble” and the solubility ([25]; cyclohexane) was “sparingly soluble”. The solubility ([25]; dimethyl sulfoxide) was “moderately soluble”, the solubility ([25]; dioxane) was “moderately soluble” and the solubility ([25]; ethanol) was “sparingly soluble”. For the same compound, the solubility ([25]; ethyl acetate) was “moderately soluble”, the solubility ([25]; hexane) was “sparingly soluble” and the solubility ([25]; methanol) was “sparingly soluble”. For the same compound, the solubility ([25]; pyridine) was “easily soluble”, the solubility ([25]; tetrahydrofuran) was “easily soluble” and the solubility ([25]; water) was “not water soluble; also recorded: insoluble”. For the same compound, the zone of inhibition at 30 µg/disc ([26]; read-out: Zone Diameter, S. aureus 3055, benzylpenicillin-susceptible, 30 mcg/disc) was 23 mm, the zone of inhibition at 300 µg/disc ([26]; read-out: Zone Diameter, S. aureus 3055, benzylpenicillin-susceptible, 300 mcg/disc) was 26.2 mm and the zone of inhibition at 30 µg/disc ([26]; read-out: Zone Diameter, S. aureus 3074, benzylpenicillin-resistant, 30 mcg/disc) was 10 mm. It also gave a zone of inhibition at 300 µg/disc ([26]; read-out: Zone Diameter, S. aureus 3074, benzylpenicillin-resistant, 300 mcg/disc) of 12.2 mm, a zone of inhibition at 30 µg/disc ([26]; read-out: Zone Diameter, S. aureus 3130, methicillin-resistant, 30 mcg/disc) of 25.8 mm and a zone of inhibition at 300 µg/disc ([26]; read-out: Zone Diameter, S. aureus 3130, methicillin-resistant, 300 mcg/disc) of 30 mm. The zone of inhibition at 30 µg/disc [27] was 11 mm, the zone of inhibition at 300 µg/disc [27] was 13 mm and the zone of inhibition at 30 µg/disc [28] was 14 mm. It also gave a zone of inhibition at 300 µg/disc [28] of 16 mm.
